Data as given in patent US20220184084A1, “COMPOSITIONS AND METHODS FOR TREATING CUSHING'S DISEASE” (The Regents of the University of California, priority 2019, published 2022).
pEC50, pIC50: −log10 of the molar value. Where two headings read alike, the source gives them in different places. One block for each compound: values may come before it. Starred links: 1 amine or outer side, 2 acyl side, 3 side chain; linkers in the order of their positions; H or OH if unused. Non-standard residues stand in square brackets, D forms with d. Residues, ends and D or L forms follow the SMILES beside them. Groups on a side chain read outwards from the residue. *: point of attachment. Ethylenediamine = C(CN[*:2])N[*:1]; Hyp = O=C(O)[C@@H]1C[C@@H](O)CN1; Phg = N[C@H](C(=O)O)c1ccccc1; CO = O=C([*:1])[*:2]; Bn = c1ccc(C*)cc1

Key:
AtT20 cells [1] = experiment: ACTH AlphaLISA assay, screen of kinase inhibitor library; type: cell-based, murine; settings: Mus musculus, read-out: ACTH Inhibition (%)
Protocol: The latter mouse antibody is then trapped by an anti-mouse IgG (Fc specific) conjugated to acceptor beads, bringing the donor and acceptor beads into close proximity. […] Conversely if the cell SN ACTH is reduced following treatment with an ACTH inhibitor, the Alpha signal is restored.
One column (#1) with vehicle treatment only, and two cell-free columns (#23 & 24) were included as AlphaLISA signal negative and positive controls respectively to monitor assay performance.
Thereafter, 2 μL of cell culture supernatant was transferred from the black culture plate into a white low volume assay plate (Corning) using Vprep (Agilent) equipped with Velocity 11 Biocel 1800 (Agilent). 1 μL of biotinylated ACTH peptide solution (AnaSpec) and 1 μL of anti-ACTH antibody solution (EMD) is added sequentially into the low volume assay plate using AquaMax DW4 (Molecular Devices) Following a 1 h incubation, 1 μL donor and acceptor beads (PerkinElmer) were added to the assay plate using ELx405 (BioTek). Optical seals (Sigma) are used to minimize assay evaporation during the subsequent 2 h incubation. The assay plate is then transferred by a Thermo Spinnaker robotic arm to Envision (PerkinElmer) for AlphaLISA signal detection.

AtT20 cells [2] = experiment: Nuclei staining (Hoechst 33342 dye), screen of kinase inhibitor library; type: cell-based, murine; settings: Mus musculus; for inhibition at 1 µM / inhibition at 10 µM: read-out: Nuclei Inhibition (%)
Protocol: This plate was incubated in a Cytomat 6000 sealed with gas permeable polyurethane film (USA Scientific) and imaged on ImageXpress^XL (Molecular Devices). All these instruments are integrated on a Beckman Coulter SAMI automation platform which tracks timing to ensure accuracy and consistency of all steps.

AtT20 cells [3] = experiment: AtT20 cell proliferation IC50 (CellTiter-Glo); type: cell-based, murine; settings: read-out: IC50 for proliferation inhibition
Protocol: The IC50 values were calculated using sigmoidal dose-response curve (GraphPad Prism).

AtT20 cells [4] = experiment: POMC mRNA expression in AtT20 cells by real time PCR; type: cell-based, murine; settings: 20 nM to 1.25 nM, 24 h, RT-PCR
Protocol: The POMC mRNA expression […] values were determined by real time PCR.
FIG. 6I depicts the results of a study wherein AtT20 cells were treated with panobinostat and burparlisib simultaneously to detect the effects on POMC mRNA expression.

AtT20 cells [5] = experiment: ACTH secretion in AtT20 cells (ELISA); type: cell-based, murine; settings: for pEC50: Mus musculus, read-out: EC50 for ACTH secretion inhibition
Protocol: The EC50 for ACTH secretion inhibition were calculated using a sigmoidal dose-response curve (GraphPad Prism).
FIG. 6F depicts the results of a study wherein AtT20 cells were treated with panobinostat and burparlisib simultaneously to detect the effects on ACTH secretion.

[6] = test system: human corticotroph tumor primary cultures; experiment: Proliferation of human corticotroph tumor primary cultures (CellTiter-Glo); type: cell-based; settings: two human primary corticotroph tumor cultures, 3 days, read-out: IC50 anti-proliferative effect
[7] = test system: human corticotroph tumor primary cultures; experiment: ACTH secretion in human corticotroph tumor primary culture (ELISA); type: cell-based; settings: Vehicle 3.7±0.2
[8] = test system: AtT20 cells inoculated into athymic nude mice; experiment: Xenograft model of Cushing disease; type: in vivo, athymic nude mice (Nu/J strain); settings: 300 mg/kg oral gavage daily, 18 days
Protocol: Animal bodyweight was recorded daily. […] Tumor size was recorded daily. […] Tumor size was measured post euthanizer. […] Tumor weight was measured post euthanizer. […] Blood samples were collected by cardiac puncture and plasma ACTH levels were measured by ELISA. […] Blood samples were collected by cardiac puncture and plasma corticosterone levels were measured by ELISA. […] AtT20 cells (2×10^5/animal) were injected into the hind flank region of athymic nude mice (Nu/J strain from Jackson lab). […] During 18-days of CUDC-907-treatment, animal bodyweight (FIG. 4A) and tumor sizes (FIG. 4B) were measured daily. Upon experiment completion, the animals were euthanized and tumors were harvested, and weighed. Blood samples were collected by cardiac puncture.

[9] = test system: AtT20 cells stably transfected with POMC promoter driven luciferase; experiment: POMC promoter-driven luciferase assay (POMC-Luc); type: cell-based, murine; settings: 1 day
Excerpt: Using a POMC promoter-driven luciferase assay, the direct actions of the aforementioned compounds on POMC transcription was examined.

AtT20 cells [10] = experiment: Expression of POMC regulators (Nurr1, Nur77, LXRα, GR) after treatment; type: cell-based, murine
Excerpt: Accordingly, the expressions of several nuclear receptors, known as POMC positive and negative regulators, including Nurr1 (NR4A2), Nur77 (NR4A1), LXRα (NR1H3), and GR (NR3C1), were examined.

Nurr1 = Nurr1 interaction with HDACs and Nurr1 phosphorylation by immunoprecipitation; type: cell-based
Excerpt: FIG. 7F depicts the interactions between Nurr1, HDACs, and Nurr1 phosphorylation, as detected by immunoprecipitation.

AtT20 cells [11] = experiment: c-Myc and cell cycle inhibitor mRNA by real time PCR; type: cell-based; settings: murine corticotroph tumor cells, 5 nM, 24 h
AtT20 cells [12] = experiment: Histone acetylation (H3K9) and AKT pathway activation in AtT20 cells; type: cell-based, murine; settings: 3 days
[13] = test system: murine corticotroph tumor Caspase-3/7; experiment: Caspase-Glo3/7 assay; type: cell-based; settings: 24 hours
AtT20 cells [14] = experiment: Relative proliferation rate, panobinostat and buparlisib alone and combined; type: cell-based, murine; settings: Veh 1.0±0.06
Protocol: FIG. 6G depicts the results of a study wherein AtT20 cells were treated with panobinostat and burparlisib simultaneously to detect the effects on cell proliferation.

[15] = background statement; cited from earlier work
[16] = 72 h, 100 nM, AtT20 cells, 3 days
[17] = 72 h, 1 μM, AtT20 cells, 3 days
[18] = 72 h, 10 μM, AtT20 cells, 3 days
[19] = Mus musculus, AtT20, 72 h, 3 day-treatment
[20] = Mus musculus, AtT20, 72 h, 3 days

SMILES: COc1ccc(-c2ccc3ncc4c(c3c2)n(-c2ccc(N3CCNCC3)c(C(F)(F)F)c2)c(=O)n4C)cn1 [BGT226 (NVP-BGT226)]
inhibition at 0.1 µM (AtT20 cells [1]; [16]): 57.5% | inhibition at 1 µM (AtT20 cells [1]; [17]): 86.3% | inhibition at 10 µM (AtT20 cells [1]; [18]): 88.2% | inhibition at 0.1 µM (AtT20 cells [2]; 72 h, AtT20 cells, 3 days): 94.3% | inhibition at 1 µM (AtT20 cells [2]; [17]): 99% | inhibition at 10 µM (AtT20 cells [2]; [18]): 95.4%

SMILES: CC[C@@H]1C(=O)N(C)c2cnc(Nc3ccc(C(=O)NC4CCN(C)CC4)cc3OC)nc2N1C1CCCC1 [BI 2536]
inhibition at 0.1 µM (AtT20 cells [1]; AtT20, 72 h): 54.9% | inhibition at 1 µM (AtT20 cells [1]; AtT20, 72 h): 82% | inhibition at 10 µM (AtT20 cells [1]; AtT20, 72 h): 77.7% | inhibition at 1 µM (AtT20 cells [2]; AtT20, 72 h): 92.3% | inhibition at 10 µM (AtT20 cells [2]; AtT20, 72 h): 94%

pEC50 (AtT20 cells [5]): 9.00 | pIC50 ([6]; Homo sapiens, 72 h): 8.52 | pIC50 [6]: 8.30 | pEC50 ([9]; Mus musculus, 24 h, read-out: EC50 for POMC transcription inhibition): 9.30 | activity of caspase-3 and -7 [13]: increasing the activity
SMILES: COc1ccc(-c2nc(N3CCOCC3)c3sc(CN(C)c4ncc(C(=O)NO)cn4)cc3n2)cn1 [CUDC-907]
inhibition at 0.1 µM (AtT20 cells [1]; [16]): 84.7% | inhibition at 1 µM (AtT20 cells [1]; [17]): 80.1% | inhibition at 10 µM (AtT20 cells [1]; [18]): 80% | inhibition at 0.1 µM (AtT20 cells [2]; 72 h, AtT20 cells, 3 days): 90.1% | inhibition at 1 µM (AtT20 cells [2]; [17]): 99.2% | inhibition at 10 µM (AtT20 cells [2]; [18]): 99.3% | pIC50 (AtT20 cells [3]; 3 day-treatment): 8.29 | pIC50 (AtT20 cells [3]; [19]): 8.30 | effect on POMC mRNA expression (AtT20 cells [4]): potent reduction in POMC mRNA expression | reduction of ACTH secretion (AtT20 cells [5]; 1.25 nM): 59% | ACTH secretion (AtT20 cells [5]; 1.25 nM, 24 h, Vehicle 30±19): 12 ± 2.4 ng/mL | ACTH secretion (AtT20 cells [5]; 2.5 nM, 24 h, Vehicle 30±19): 12 ± 5.7 ng/mL | ACTH secretion (AtT20 cells [5]; concentration not given, 24 h, Vehicle 30±19): 15 ± 2.2 ng/mL | ACTH secretion [7]: 1.9 ± 0.001 ng/mL | reduction of plasma ACTH level ([8]; vs controls): 77% | reduction of plasma corticosterone level ([8]; vs controls): 85% | reduction in tumor size ([8]; vs vehicle): ~35% | reduction in tumor weight ([8]; vs vehicle): 44% | tumor weight ([8]; Control 0.098±0.02): 0.04±0.006 gram | tumor volume ([8]; Control 0.17±0.05): 0.065±0.02 cm^3 | Plasma corticosterone ([8]; Control 180±87): 27 ± 4.66 ng/mL | Plasma ACTH ([8]; Control 206.1±27.2): 47.4 ± 7.3 pg/mL | Nurr1 expression (AtT20 cells [10]; 1.25 nM, 24 h): reduction in Nurr1 expression | LXRα expression (AtT20 cells [10]; 5 and 10 nM, 24 h): reductions | Nur77 expression (AtT20 cells [10]; 5 and 10 nM, 24 h): reductions | Nurr1 protein expression (AtT20 cells [10]; 6 h-treatment): dramatic inhibition | GR expression (AtT20 cells [10]; 24 h): minor effects | Nurr1 mRNA expression (AtT20 cells [10]; real time PCR): inhibition of Nurr1 mRNA expression | Nurr1 interaction with HDAC-1, 2, 3, but not HDAC10 (Nurr1): unaffected | Nurr1 serine/threonine phosphorylation levels (Nurr1): dramatically inhibited | c-Myc mRNA expression (AtT20 cells [11]): increased | AKT activation and downstream target 4E-BPI (AtT20 cells [12]): blocked | histone acetylation Ac-H3-K9 (AtT20 cells [12]): elevated histone acetylation

SMILES: CCc1cnn2c(NCc3ccc[n+]([O-])c3)cc(N3CCCC[C@H]3CCO)nc12 [Dinaciclib (SCH727965)]
inhibition at 0.1 µM (AtT20 cells [1]; [16]): 58.1% | inhibition at 1 µM (AtT20 cells [1]; [17]): 77.3% | inhibition at 10 µM (AtT20 cells [1]; [18]): 69.2% | inhibition at 0.1 µM (AtT20 cells [2]; 72 h, AtT20 cells, 3 days): 92% | inhibition at 1 µM (AtT20 cells [2]; [17]): 98.3% | inhibition at 10 µM (AtT20 cells [2]; [18]): 98%

SMILES: Cc1nc(Nc2n[nH]c3c2CN(C(=O)N[C@H](CN(C)C)c2ccccc2)C3(C)C)c2sccc2n1 [PF-3758309]
inhibition at 0.1 µM (AtT20 cells [1]; [16]): 70.4% | inhibition at 1 µM (AtT20 cells [1]; [17]): 70.2% | inhibition at 10 µM (AtT20 cells [1]; [18]): 77.5% | inhibition at 0.1 µM (AtT20 cells [2]; 72 h, AtT20 cells, 3 days): 91.5% | inhibition at 1 µM (AtT20 cells [2]; [17]): 95.6% | inhibition at 10 µM (AtT20 cells [2]; [18]): 95.2%

SMILES: Nc1cc(C(F)(F)F)c(-c2cc(N3CCOCC3)nc(N3CCOCC3)n2)cn1 [buparlisib]
pIC50 (AtT20 cells [3]; [20]): 6.30 | effect on ACTH secretion (AtT20 cells [5]; buparlisib alone): did not inhibit ACTH secretion | effect on POMC transcription [9]: increased POMC transcription at higher doses | Relative Proliferation Rate (AtT20 cells [14]; buparlisib 62.5 nM alone): 1.0±0.06

pEC50 (AtT20 cells [5]): 8.40
SMILES: Cc1[nH]c2ccccc2c1CCNCc1ccc(/C=C/C(=O)NO)cc1 [panobinostat]
pIC50 (AtT20 cells [3]; [19]): 7.70 | ACTH secretion (AtT20 cells [5]; panobinostat 5 nM alone, Veh 39.6±2): 28.7 ± 0.1 ng/mL | ACTH secretion (AtT20 cells [5]; panobinostat 10 nM alone, Veh 39.6±2): 13.6 ± 1 ng/mL | inhibition of ACTH secretion (AtT20 cells [5]; panobinostat 5 and 10 nM alone): up to 66% | Relative Proliferation Rate (AtT20 cells [14]; panobinostat 5 nM alone): 1.0±0.01 | Relative Proliferation Rate (AtT20 cells [14]; panobinostat 10 nM alone): 0.8±0.005

SMILES: NCCCC[C@@H]1NC(=O)[C@@H](Cc2c[nH]c3ccccc23)NC(=O)[C@H](c2ccccc2)NC(=O)[C@@H]2C[C@@H](OC(=O)NCCN)CN2C(=O)[C@H](Cc2ccccc2)NC(=O)[C@H](Cc2ccc(OCc3ccccc3)cc2)NC1=O [pasireotide] (cyclo([Hyp]([CO-Ethylenediamine])[Phg][dW]KY(Bn)F))
patients in whom the drug causes diabetes [15]: approximately 50%

SMILES: CS(=O)(=O)N1CCN(Cc2cc3nc(-c4cccc5[nH]ncc45)nc(N4CCOCC4)c3s2)CC1 [pictilisib]
pIC50 (AtT20 cells [3]; [20]): 6.10 | effect on POMC transcription [9]: increased POMC transcription at higher doses
